Reference: US20220296613A1, “FOOD-INDEPENDENT DOSING OF CV-10155 TO TREAT GABAA DISORDERS” (priority 2021, published 2022)
Where “and” joins values, the source holds several entries; their conditions need not be identical. Identical values can stand only once.

Columns and labels:
[1] = target: α1β2γ2 GABAA receptors (Homo sapiens, UniProt P14867+P47870); test: Synchropatch electrophysiology, potentiation of synaptic GABAA receptors; assay type: cell-based
[2] = target: α4β3δ GABAA receptors (Homo sapiens, UniProt P28472+P48169); test: Synchropatch electrophysiology, potentiation of extra synaptic GABAA receptors; assay type: cell-based
Chain of α4β3δ GABAA receptors (P48169 36-554): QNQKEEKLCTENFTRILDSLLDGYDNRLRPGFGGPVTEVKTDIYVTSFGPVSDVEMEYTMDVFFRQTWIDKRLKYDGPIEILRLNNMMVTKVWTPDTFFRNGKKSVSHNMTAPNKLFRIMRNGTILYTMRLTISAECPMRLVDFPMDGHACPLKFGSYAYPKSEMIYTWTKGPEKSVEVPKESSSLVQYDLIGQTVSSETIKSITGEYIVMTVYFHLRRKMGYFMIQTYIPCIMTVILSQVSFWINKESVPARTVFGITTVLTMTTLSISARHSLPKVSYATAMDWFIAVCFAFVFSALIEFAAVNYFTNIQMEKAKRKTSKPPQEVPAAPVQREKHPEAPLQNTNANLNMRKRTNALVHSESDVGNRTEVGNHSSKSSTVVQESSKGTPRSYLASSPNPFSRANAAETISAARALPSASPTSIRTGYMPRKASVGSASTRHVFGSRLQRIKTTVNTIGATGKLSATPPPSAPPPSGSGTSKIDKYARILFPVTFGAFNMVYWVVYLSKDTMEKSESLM
Chain of α4β3δ GABAA receptors (P28472 26-473): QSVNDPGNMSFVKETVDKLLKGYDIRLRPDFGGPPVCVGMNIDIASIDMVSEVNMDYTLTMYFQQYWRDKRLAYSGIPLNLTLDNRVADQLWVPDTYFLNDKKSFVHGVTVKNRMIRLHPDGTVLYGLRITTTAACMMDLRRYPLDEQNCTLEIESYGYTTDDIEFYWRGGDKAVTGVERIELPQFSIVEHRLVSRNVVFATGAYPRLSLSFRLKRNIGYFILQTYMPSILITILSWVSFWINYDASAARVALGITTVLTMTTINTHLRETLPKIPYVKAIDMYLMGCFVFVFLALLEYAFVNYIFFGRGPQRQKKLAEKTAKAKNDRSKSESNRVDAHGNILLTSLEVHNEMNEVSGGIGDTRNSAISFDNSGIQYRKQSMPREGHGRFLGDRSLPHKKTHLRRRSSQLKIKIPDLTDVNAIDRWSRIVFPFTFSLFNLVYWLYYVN
Chain of α4β3δ GABAA receptors (O14764 25-452 partner): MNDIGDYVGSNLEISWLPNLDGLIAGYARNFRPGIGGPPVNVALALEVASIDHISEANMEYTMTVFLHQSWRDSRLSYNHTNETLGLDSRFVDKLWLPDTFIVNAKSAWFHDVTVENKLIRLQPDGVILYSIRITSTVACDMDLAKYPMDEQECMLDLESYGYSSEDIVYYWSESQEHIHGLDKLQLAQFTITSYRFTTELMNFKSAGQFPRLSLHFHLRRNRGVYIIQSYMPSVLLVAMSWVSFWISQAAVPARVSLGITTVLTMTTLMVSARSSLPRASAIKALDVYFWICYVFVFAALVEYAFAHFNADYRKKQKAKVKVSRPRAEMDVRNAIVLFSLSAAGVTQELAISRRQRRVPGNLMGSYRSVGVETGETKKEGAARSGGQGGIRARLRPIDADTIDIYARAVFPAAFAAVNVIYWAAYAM

[3] = tested on: models of depression, anxiety, seizure, and EEG; test: Preclinical rodent models of seizure, anxiety, depression and EEG biomarker (overall); assay type: in vivo
[4] = tested on: sleep states; test: Sleep states by electroencephalogram (EEG) in rats; assay type: in vivo
Experimental: The effect of CV-10155 on various sleep states was analyzed in rats. Rats were given various doses of CV-10155, and sleep states were analyzed by electroencephalogram (EEG).
FIG. 17 is a hypnogram showing the percentage of time spent in different sleep states by rats given drug vehicle. Purple bars represent REM sleep; green bars represent non-REM sleep; blue bars represent quiet waking; and red bars represent active waking.
FIG. 18 is a hypnogram showing the percentage of time spent in different sleep states by rats given 1 mg/kg CV-10155. Purple bars represent REM sleep; green bars represent non-REM sleep; blue bars represent quiet waking; and red bars represent active waking.
FIG. 19 is a hypnogram showing the percentage of time spent in different sleep states by rats given 3 mg/kg CV-10155. Purple bars represent REM sleep; green bars represent non-REM sleep; blue bars represent quiet waking; and red bars represent active waking.
FIG. 20 is a hypnogram showing the percentage of time spent in different sleep states by rats given 6 mg/kg CV-10155. Purple bars represent REM sleep; green bars represent non-REM sleep; blue bars represent quiet waking; and red bars represent active waking.
FIG. 21 is a hypnogram showing the percentage of time spent in different sleep states by rats given 10 mg/kg CV-10155. […]

[5] = clinical; settings: human, in vivo
[6] = clinical; settings: human, in vivo, 60 mg
[7] = Pharmacokinetics of CV-10155 in preclinical rodent studies; settings: for AUC(0-inf) / Cmax / Tmax: rodent, in vivo, po
[8] = Pharmacokinetics of CV-10155 solid dosage forms in fed or fasted beagle dogs; settings: for AUC(0-t): AUCLast; for MRT inf: MRTInf; for half-life: T½
[9] = 1 mg/kg (minimal effective dose), study including male and female subjects
[10] = 3 mg/kg, study including male and female subjects
[11] = 5 mg/kg, study including only male subjects
[12] = 10 mg/kg, study including male and female subjects
[13] = HPMC-AS formulation, 10 mg PO, fed cohort, individual dogs
[14] = HPMC-AS formulation, 10 mg PO, fed cohort, mean of 4 dogs
[15] = HPMC-AS formulation, 10 mg PO, pentagastrin/fasted cohort, individual dogs
[16] = HPMC-AS formulation, 10 mg PO, pentagastrin/fasted cohort, mean of 4 dogs
[17] = HPMC-AS formulation, 30 mg PO, pentagastrin/fasted cohort, individual dogs
[18] = HPMC-AS formulation, 30 mg PO, pentagastrin/fasted cohort, mean of 4 dogs
[19] = male, beagle, dog, plasma, po, 10 mg, HPMC-AS formulation, 10 mg PO, fed cohort, mean of 4 dogs
[20] = male, beagle, dog, plasma, po, 10 mg, HPMC-AS formulation, 10 mg PO, pentagastrin/fasted cohort, mean of 4 dogs
[21] = male, beagle, dog, plasma, po, 10 mg, HPMC-AS formulation, 10 mg PO, fed cohort, individual dogs
[22] = male, beagle, dog, plasma, po, 30 mg, HPMC-AS formulation, 30 mg PO, pentagastrin/fasted cohort, mean of 4 dogs
[23] = male, beagle, dog, plasma, po, 30 mg, HPMC-AS formulation, 30 mg PO, pentagastrin/fasted cohort, individual dogs

Chain of α1β2γ2 GABAA receptors (P14867 28-456): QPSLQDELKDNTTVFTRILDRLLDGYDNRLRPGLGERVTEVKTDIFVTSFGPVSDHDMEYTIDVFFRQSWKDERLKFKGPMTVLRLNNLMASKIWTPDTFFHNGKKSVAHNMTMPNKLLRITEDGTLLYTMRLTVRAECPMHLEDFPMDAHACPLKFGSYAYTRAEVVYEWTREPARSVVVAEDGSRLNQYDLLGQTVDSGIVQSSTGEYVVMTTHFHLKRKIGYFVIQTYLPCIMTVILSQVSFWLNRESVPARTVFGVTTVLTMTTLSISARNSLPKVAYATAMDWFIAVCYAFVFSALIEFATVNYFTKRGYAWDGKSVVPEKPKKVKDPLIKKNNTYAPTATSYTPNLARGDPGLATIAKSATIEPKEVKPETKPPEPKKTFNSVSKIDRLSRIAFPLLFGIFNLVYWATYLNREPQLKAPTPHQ
Chain of α1β2γ2 GABAA receptors (P47870 25-512 limits assumed): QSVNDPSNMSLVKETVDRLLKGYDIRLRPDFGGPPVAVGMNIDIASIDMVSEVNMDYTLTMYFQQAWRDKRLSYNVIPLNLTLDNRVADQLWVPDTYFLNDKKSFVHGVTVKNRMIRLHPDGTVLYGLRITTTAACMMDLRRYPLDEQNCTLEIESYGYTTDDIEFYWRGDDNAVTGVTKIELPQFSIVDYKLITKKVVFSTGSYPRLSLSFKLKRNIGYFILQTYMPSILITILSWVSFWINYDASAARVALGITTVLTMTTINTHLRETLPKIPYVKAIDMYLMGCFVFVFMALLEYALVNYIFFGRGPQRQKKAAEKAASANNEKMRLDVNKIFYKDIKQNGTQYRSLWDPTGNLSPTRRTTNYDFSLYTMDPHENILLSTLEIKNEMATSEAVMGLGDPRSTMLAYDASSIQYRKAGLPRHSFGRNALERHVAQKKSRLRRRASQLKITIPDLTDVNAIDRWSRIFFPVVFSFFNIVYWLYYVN
Chain of α1β2γ2 GABAA receptors (P18507 40-475 partner): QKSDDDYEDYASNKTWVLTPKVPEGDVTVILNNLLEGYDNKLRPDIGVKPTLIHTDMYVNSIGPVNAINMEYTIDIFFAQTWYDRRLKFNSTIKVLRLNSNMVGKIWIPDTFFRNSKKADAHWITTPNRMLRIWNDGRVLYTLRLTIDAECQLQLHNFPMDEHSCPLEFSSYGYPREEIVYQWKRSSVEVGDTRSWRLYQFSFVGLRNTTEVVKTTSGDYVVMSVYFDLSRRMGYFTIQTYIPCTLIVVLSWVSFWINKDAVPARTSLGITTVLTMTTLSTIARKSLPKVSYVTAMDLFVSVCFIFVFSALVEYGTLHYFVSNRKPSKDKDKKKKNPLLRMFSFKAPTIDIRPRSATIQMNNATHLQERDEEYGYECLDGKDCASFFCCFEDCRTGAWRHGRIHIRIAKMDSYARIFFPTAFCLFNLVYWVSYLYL

Question: What does the source list for `C[C@@]1(O)CC[C@@]2(C)[C@@H](CC[C@@H]3[C@@H]2CC[C@]2(C)[C@@H](C(=O)Cn4cc(C#N)cn4)CC[C@@H]32)C1` [CV-10155, 1-[2-[(3R,5S,8R,9S,10S,13S,14S,17S)-3-hydroxy-3,10,13-trimethyl-1,2,4,5,6,7,8,9,11,12,14,15,16,17-tetradecahydrocyclopenta[a]phenanthren-17-yl]-2-oxoethyl]pyrazole-4-carbonitrile]?
Answer: EC50 [1]: 0.207 µM; Emax ([1]; α1β2γ2 Synaptic receptors, Synchropatch electrophysiology, read-out: Emax - efficacy: % of potentiation): 586%; EC50 [2]: 0.165 µM; fold higher efficiency at extra synaptic vs. synaptic channels ([2]; α4β3δ vs α1β2γ2): 3 fold; dose from which robust efficacy was observed ([3]; most rodent models of seizure): ≥ 3 mg/kg; minimal effective dose (MED) ([3]; rodent models of seizure): 1 mg/kg; dose producing an increase in non-REM sleep ([4]; EEG, 1, 3, 6, 10 mg/kg tested): ≥ 3 mg/kg; target engagement (EEG) ([4]; within well-tolerated and efficacious dose ranges): dose-dependent target engagement; dose proportionality of AUC and Cmax (human, in vivo, po): dose-proportional increase; MTD, single ascending dose (SAD) (humans): ETX-155 135 mg SAD MTD; dose-limiting adverse event (humans): Ataxia; effect of food consumption on absorption (humans, oral 30 mg, fed vs fasted): no clinically meaningful effect; adverse events observed (humans, single oral dose, 200 mg): ataxia, tremor and tachycardia; inter-subject variability (CV) of AUC and Cmax (humans, single oral dose, 5-200 mg dose range): ≤ 30%; dose-limiting adverse events (humans, single oral dose, range of 5-135 mg): No dose-limiting adverse events were observed; most common adverse events (humans, single oral dose, mild to moderate, only observed at the highest doses): Dizziness and somnolence; AUC(0-inf) ([5]; 135 mg): 3.66 µg·h/mL; Cmax ([5]; 135 mg): 0.333 µg/mL; Tmax ([5]; 135 mg): 2.83 h; half-life ([5]; 135 mg): 25 h; Tmax ([5]; po): 2 to 4 h; half-life ([5]; po): 24 to 26 h; AUC [6]: 2.9 µg·h/mL; Cmax [6]: 0.253 µg/mL; Tmax [6]: 3 h; half-life [6]: 34.5 h; 1/2 life [7, 9]: 3.66-6.82; Oral BA [7, 9]: 58.6-92.4; Oral BA ([7]; 2 mg/kg, study including only male subjects): 47.2; 1/2 life [7, 10]: 2.84-4.96; Oral BA [7, 10]: 53-92.3; 1/2 life [7, 11]: 4.19; Oral BA [7, 11]: 58.1; 1/2 life [7, 12]: 3.23-4.80; Oral BA [7, 12]: 79.7-100; AUC(0-inf) ([7]; both, 1 mg/kg): 0.508 to 1.3 µg·h/mL; Cmax ([7]; both, 1 mg/kg): 0.0844 to 0.128 µg/mL; Tmax ([7]; both, 1 mg/kg): 1.5 to 2 h; AUC(0-inf) ([7]; both, 3 mg/kg): 1.38 to 3.9 µg·h/mL; Cmax ([7]; both, 3 mg/kg): 0.27 to 0.44 µg/mL; Tmax ([7]; both, 3 mg/kg): 1.25 to 2.5 h; AUC(0-inf) ([7]; both, 10 mg/kg): 6.85 to 14.7 µg·h/mL; Cmax ([7]; both, 10 mg/kg): 1.17 µg/mL; Tmax ([7]; both, 10 mg/kg): 1.25 to 2.25 h; AUC(0-inf) ([7]; male, 2 mg/kg): 1.32 µg·h/mL; Cmax ([7]; male, 2 mg/kg): 0.224 µg/mL; Tmax ([7]; male, 2 mg/kg): 1.7 h; AUC(0-inf) ([7]; male, 5 mg/kg): 2.61 µg·h/mL; Cmax ([7]; male, 5 mg/kg): 0.499 µg/mL; Tmax ([7]; male, 5 mg/kg): 0.83 h; AUCExtr [8, 13]: 23.1% and 21.3% and 22.0% and 23.4%; AUCInf [8, 13]: 5.047 µg·h/mL and 2.44 µg·h/mL and 2.105 µg·h/mL and 3.712 µg·h/mL; AUCInf/D [8, 13]: 5602 kg·ng·h/mL/mg and 2929 kg·ng·h/mL/mg and 2273 kg·ng·h/mL/mg and 4084 kg·ng·h/mL/mg; AUCLast [8, 13]: 3.882 µg·h/mL and 1.919 µg·h/mL and 1.641 µg·h/mL and 2.845 µg·h/mL; Cmax [8, 13]: 0.512 µg/mL and 0.334 µg/mL and 0.273 µg/mL and 0.649 µg/mL; F [8, 13]: 71.6% and 38.3% and 29.4% and 52.0%; MRTInf [8, 13]: 14.8 h and 15.0 h and 15.5 h; T½ [8, 13]: 12.5 h and 12.2 h and 15.0 h; AUCExtr [8, 14]: 22.5%; AUCInf/D [8, 14]: 3722 kg·ng·h/mL/mg; F [8, 14]: 47.8%; AUCExtr [8, 15]: 20.4% and 14.1% and 47.1% and 17.9%; AUCInf [8, 15]: 2.465 µg·h/mL and 2.612 µg·h/mL; AUCInf/D [8, 15]: 2762 kg·ng·h/mL/mg and 2441 kg·ng·h/mL/mg and 3314 kg·ng·h/mL/mg and 2821 kg·ng·h/mL/mg; AUCLast [8, 15]: 2.118 µg·h/mL and 1.754 µg·h/mL and 2.145 µg·h/mL; Cmax [8, 15]: 0.34 µg/mL and 0.183 µg/mL and 0.217 µg/mL; F [8, 15]: 36.5% and 34.8% and 29.1% and 38.5%; MRTInf [8, 15]: 14.8 h and 11.6 h and 33.6 h and 13.6 h; Tmax [8, 15]: 1 h; T½ [8, 15]: 11.1 h and 8.84 h and 25.7 h and 9.66 h; AUCExtr [8, 16]: 24.8%; AUCInf/D [8, 16]: 2834 kg·ng·h/mL/mg; F [8, 16]: 34.7%; AUCExtr [8, 17]: 30.3% and 27.1% and 19.4% and 24.4%; AUCInf [8, 17]: 12.588 µg·h/mL and 8.62 µg·h/mL and 4.072 µg·h/mL and 7.783 µg·h/mL; AUCInf/D [8, 17]: 4995 kg·ng·h/mL/mg and 3157 kg·ng·h/mL/mg and 1572 kg·ng·h/mL/mg and 2982 kg·ng·h/mL/mg; AUCLast [8, 17]: 8.769 µg·h/mL and 6.285 µg·h/mL and 3.281 µg·h/mL and 5.884 µg·h/mL; Cmax [8, 17]: 1.44 µg/mL and 0.954 µg/mL and 0.302 µg/mL and 0.993 µg/mL; F [8, 17]: 57.8% and 38.3% and 21.1% and 37.5%; MRTInf [8, 17]: 18.1 h and 14.4 h and 16.2 h; T½ [8, 17]: 13.6 h and 9.98 h and 12.3 h; AUCExtr [8, 18]: 25.3%; AUCInf/D [8, 18]: 3177 kg·ng·h/mL/mg; F [8, 18]: 38.6%; AUC(0-inf) ([8]; male, beagle, dog, in vivo, po, 10 mg): 3.31 µg·h/mL; AUC(0-inf) ([8]; male, beagle, dog, plasma, po, 10 mg, AUCInf, HPMC-AS formulation, 10 mg PO, fed cohort, mean of 4 dogs): 3.33 µg·h/mL; AUC(0-inf) ([8]; male, beagle, dog, plasma, po, 10 mg, AUCInf, HPMC-AS formulation, 10 mg PO, pentagastrin/fasted cohort, individual dogs): 2.63 µg·h/mL; AUC(0-inf) ([8]; male, beagle, dog, plasma, po, 10 mg, AUCInf, HPMC-AS formulation, 10 mg PO, pentagastrin/fasted cohort, mean of 4 dogs): 2.75 µg·h/mL; AUC(0-t) [8, 19]: 2.57 µg·h/mL; AUC(0-t) ([8]; male, beagle, dog, plasma, po, 10 mg, HPMC-AS formulation, 10 mg PO, pentagastrin/fasted cohort, individual dogs): 2.09 µg·h/mL; AUC(0-t) [8, 20]: 2.03 µg·h/mL; Cmax ([8]; male, beagle, dog, plasma, po, 10 mg, Cmax, HPMC-AS formulation, 10 mg PO, fed cohort, mean of 4 dogs): 0.442 µg/mL; Cmax ([8]; male, beagle, dog, plasma, po, 10 mg, Cmax, HPMC-AS formulation, 10 mg PO, pentagastrin/fasted cohort, individual dogs): 0.222 µg/mL; Cmax ([8]; male, beagle, dog, plasma, po, 10 mg, Cmax, HPMC-AS formulation, 10 mg PO, pentagastrin/fasted cohort, mean of 4 dogs): 0.241 µg/mL; MRT inf [8, 21]: 15.7 h; MRT inf [8, 19]: 15.3 h; MRT inf [8, 20]: 18.4 h; Tmax ([8]; male, beagle, dog, plasma, po, 10 mg, Tmax, HPMC-AS formulation, 10 mg PO, fed cohort, mean of 4 dogs): 1.13 h; Tmax ([8]; male, beagle, dog, plasma, po, 10 mg, Tmax, HPMC-AS formulation, 10 mg PO, pentagastrin/fasted cohort, individual dogs): 2 h; Tmax ([8]; male, beagle, dog, plasma, po, 10 mg, Tmax, HPMC-AS formulation, 10 mg PO, pentagastrin/fasted cohort, mean of 4 dogs): 1.5 h; half-life [8, 21]: 12.6 h; half-life [8, 19]: 13.1 h; half-life [8, 20]: 13.8 h; AUC(0-inf) ([8]; male, beagle, dog, plasma, po, 30 mg, AUCInf, HPMC-AS formulation, 30 mg PO, pentagastrin/fasted cohort, mean of 4 dogs): 8.27 µg·h/mL; AUC(0-t) [8, 22]: 6.05 µg·h/mL; Cmax ([8]; male, beagle, dog, plasma, po, 30 mg, Cmax, HPMC-AS formulation, 30 mg PO, pentagastrin/fasted cohort, mean of 4 dogs): 0.922 µg/mL; MRT inf [8, 23]: 20 h; MRT inf [8, 22]: 17.2 h; Tmax ([8]; male, beagle, dog, plasma, po, 30 mg, Tmax, HPMC-AS formulation, 30 mg PO, pentagastrin/fasted cohort, mean of 4 dogs): 1 h; half-life [8, 23]: 17.8 h; half-life [8, 22]: 13.4 h
